# According to patent US20240132480A1, “INHIBITORS OF MYCOBACTERIUM TUBERCULOSIS LIPOAMIDE DEHYDROGENASE” (Cornell University, priority 2021, published 2024):
# Like-named read-outs stand apart in the source and are kept apart here.
# Legend:
# [1] = microsomes
# Mtb Lpd = Mtb Lpd (Mycobacterium tuberculosis (strain ATCC 25618 / H37Rv), UniProt P9WHH9); format: biochemical
# [2] = 30 min preincubation, read-out: LPD IC50 (μM) w/ 30 min preincubation
Compound,Human Liver Microsome Stability [1] [µL/min/mg],IC50 (Mtb Lpd; read-out: LPD IC50) [µM],IC50 (Mtb Lpd; [2]) [µM]
"COc1ccc(NC(=O)CN(C)S(=O)(=O)c2cc(C)cc3c2NC(=O)C3)cc1Cl [Example 2, N-(3-chloro-4-methoxyphenyl)-2-((N,5-dimethyl-2-oxoindoline)-7-sulfonamido)acetamide]",490,–,–
Cc1cc(S(=O)(=O)N(C)CC(=O)Nc2ccn(C)c(=O)c2)c2[nH]ncc2c1 [Example 6],-11,–,–
Cc1cc(S(=O)(=O)N2CCC[C@H]2C(=O)Nc2ccn(C)c(=O)c2)c2[nH]ncc2c1 [Example 7],18,0.0513,–
COc1ccc(NC(=O)CN(C)S(=O)(=O)c2cc(C(F)F)cc3cn[nH]c23)cc1C [Example 8],534,0.0263,–
COc1ccc(NC(=O)CN(C)S(=O)(=O)c2cc(C)cc3c(C)n[nH]c23)cc1C [Example 9],>768,0.0273,–
Cc1cc2c(c(S(=O)(=O)N(C)CC(=O)Nc3ccc(N4CCCCC4)c(C)c3)c1)CC=C2 [Example 11],105,0.0341,–
"CCn1ccc(NC(=O)CN(C)S(=O)(=O)c2cc(C)cc3cn[nH]c23)cc1=O [Example 14, 2-((N,5-dimethyl-1H-indazole)-7-sulfonamido)-N-(1-ethyl-2-oxo-1,2-dihydropyridin-4-yl)acetamide]",-12,0.0531,–
"CCN(CC(=O)Nc1ccc(OC)c(Cl)c1)S(=O)(=O)c1cc(C)cc2cn[nH]c12 [Example 15, N-(3-chloro-4-methoxyphenyl)-2-((N-ethyl-5-methyl-1H-indazole)-7-sulfonamido)acetamide]",528,0.0417,–
Cc1cc(S(=O)(=O)N(C)CC(=O)Nc2ccn(C(C)C)c(=O)c2)c2[nH]ncc2c1 [Example 16],35,0.0508,–
Cc1cc(NC(=O)CN(C)S(=O)(=O)c2c(C)c(C)cc3cn[nH]c23)ccc1N1CCOCC1 [Example 19],253,0.0469,–
CCc1ccc(NC(=O)CN(C)S(=O)(=O)c2cc(C)cc3cc[nH]c23)cc1C [Example 21],328,0.136,–
Cc1cc(S(=O)(=O)N(C)CC(=O)Nc2ccn(C)c(=O)c2)c2[nH]ccc2c1 [Example 23],19,0.0993,–
Cc1cc(S(=O)(=O)N(C)CC(=O)Nc2ccn3nccc3c2)c2[nH]ncc2c1 [Example 25],275,0.0204,–
Cc1cc(S(=O)(=O)N(C)CC(=O)Nc2ccn3ccnc3c2)c2[nH]ncc2c1 [Example 26],154,0.0628,–
"Cc1cc(S(=O)(=O)N2CC[C@H]2C(=O)Nc2ccn(C)c(=O)c2)c2[nH]ncc2c1 [Example 27, (S)-1-((5-methyl-1H-indazol-7-yl)sulfonyl)-N-(1-methyl-2-oxo-1,2-dihydropyridin-4-yl)azetidine-2-carboxamide]",-8,0.0545,–
COCc1n[nH]c2c(S(=O)(=O)N(C)CC(=O)Nc3ccc(OC)c(C)c3)cc(C)cc12 [Example 28],>768,3640,–
Cc1cc(S(=O)(=O)N(C)CC(=O)Nc2ccc3c(c2)OCCO3)c2[nH]ncc2c1 [Example 29],76,0.0109,–
"Cc1cc(S(=O)(=O)N(C)CC(=O)Nc2ccc3c(c2)OCCN3C)c2[nH]ncc2c1 [Example 30, 2-((N,5-dimethyl-1H-indazole)-7-sulfonamido)-N-(4-methyl-3,4-dihydro-2H-benzo[b][1,4]oxazin-7-yl)acetamide]",78,0.00363,–
Cc1cc(S(=O)(=O)N(C)CC(=O)Nc2ccc3c(c2)N(C)CCO3)c2[nH]ncc2c1 [Example 31],91,0.0165,–
Cc1cc(S(=O)(=O)N(C)CC(=O)Nc2ccc(N3CCOCC3)c(C)c2)c2[nH]ncc2c1 [Example 32],234,0.0043,–
Cc1cc(NC(=O)CN(C)S(=O)(=O)c2cc(C3CC3)cc3cn[nH]c23)ccc1N1CCOCC1 [Example 34],203,0.0067,–
CN(CC(=O)Nc1ccn(C)c(=O)c1)S(=O)(=O)c1cc(C2CC2)cc2cn[nH]c12 [Example 35],91,0.152,–
Cc1cc(S(=O)(=O)N(C)CC(=O)Nc2ccn(C)c(=O)c2)c2[nH]nc(C)c2c1 [Example 36],-26,0.0657,–
CN(CC(=O)Nc1ccn(C)c(=O)c1)S(=O)(=O)c1cc(C(F)F)cc2cn[nH]c12 [Example 37],22,0.0474,–
Cc1cc(S(=O)(=O)N2CC[C@H]2C(=O)Nc2ccc3c(c2)OCCO3)c2[nH]ncc2c1 [Example 39],76,0.0237,–
Cc1cc(S(=O)(=O)N2CC[C@H]2C(=O)Nc2ccc3c(c2)OCCN3C)c2[nH]ncc2c1 [Example 40],78,0.03,–

Compound,Human Liver Microsome Stability [1] [µL/min/mg],IC50 (Mtb Lpd; read-out: LPD IC50) [µM],IC50 (Mtb Lpd; [2]) [µM]
Cc1cc(S(=O)(=O)N2CC[C@H]2C(=O)Nc2ccc3c(c2)N(C)CCO3)c2[nH]ncc2c1 [Example 41],197,0.0356,–
Cc1cc(S(=O)(=O)N(C)CC(=O)Nc2ccc(C3CCCCC3)c(C)c2)c2[nH]c(C)cc2c1 [Example 42],23,0.573,–
"Cc1cc(S(=O)(=O)N(C)CC(=O)Nc2ccn(C)c(=O)c2)c2[nH]ncc2c1F [Example 43, 2-((4-fluoro-N,5-dimethyl-1H-indazole)-7-sulfonamido)-N-(1-methyl-2-oxo-1,2-dihydropyridin-4-yl)acetamide]",42,0.0498,–
CNCc1n[nH]c2c(S(=O)(=O)N(C)CC(=O)Cc3ccn(C)c(=O)c3)cc(C)cc12 [Example 44],-2,0.13,–
CCN(CC(=O)NC1=CC(=O)C(C)C=C1)S(=O)(=O)c1cc(C)cc2cn[nH]c12 (stereo not shown) [Example 45],39,0.0268,–
"Cc1cc(S(=O)(=O)N(C)CC(=O)Nc2ccn3cccc3c2)c2[nH]ncc2c1 [Example 46, 2-((N,5-dimethyl-1H-indazole)-7-sulfonamido)-N-(imidazo[1,5-a]pyridin-7-yl)acetamide]",4,0.0067,–
Cc1cc(S(=O)(=O)N(CC(=O)NC2=CC(=O)C(C)C=C2)C(C)C)c2[nH]ncc2c1 (stereo not shown) [Example 47],-9,0.434,–
Cc1cc(S(=O)(=O)N(C)CC(=O)Nc2ccc3nccn3c2)c2n[nH]cc2c1 [Example 48],36,0.0421,–
Cc1cc(S(=O)(=O)N(C)CC(=O)NCc2ccccc2)c2n[nH]cc2c1 [Example 49],43,0.031,–
Cc1cc(S(=O)(=O)N(C)CC(=O)NC2COC2)c2n[nH]cc2c1 [Example 50],8,0.0738,–
COc1ccc(CNC(=O)CN(C)S(=O)(=O)c2cc(C)cc3c[nH]nc23)cc1 [Example 51],70,0.049,–
Cc1cc(S(=O)(=O)N(C)CC(=O)Nc2ccc3ncccc3c2)c2n[nH]cc2c1 [Example 52],113,0.0218,–
Cc1cc(S(=O)(=O)N(C)CC(=O)Nc2ccc3cnccc3c2)c2n[nH]cc2c1 [Example 57],59,0.0328,–
Cc1cc(S(=O)(=O)N(C)CC(=O)Nc2ccc3cccnc3c2)c2n[nH]cc2c1 [Example 61],122,0.0229,–
Cc1cc(S(=O)(=O)N(C)CC(=O)Nc2ccc3ccncc3c2)c2n[nH]cc2c1 [Example 63],63,0.0321,–
Cc1cc(S(=O)(=O)N2CC[C@H]2C(=O)Nc2ccc3ccncc3c2)c2[nH]ncc2c1 [Example 71],132,0.0513,–
COc1ccc(NC(=O)[C@@H]2CCN2S(=O)(=O)c2cc(C)cc3cn[nH]c23)cc1Cl [Example 74],325,0.0488,–
Cc1cc(S(=O)(=O)N(C)CC(=O)Nc2nc3ccccc3o2)c2n[nH]cc2c1 [Example 76],274,0.0994,–
CCN(CC(=O)Nc1ccc2c(c1)OCCN2C)S(=O)(=O)c1cc(C)cc2cn[nH]c12 [Example 88],46,–,–
CC(=O)N1CCOc2cc(NC(=O)CN(C)S(=O)(=O)c3cc(C)cc4cn[nH]c34)ccc21 [Example 90],18,–,–
Cc1cc(S(=O)(=O)N(C)CC(=O)Nc2ccc3c(c2)OCCN3C)c2[nH]nc(C)c2c1 [Example 92],19,–,–
CN(CC(=O)Nc1ccn(C)c(=O)c1)S(=O)(=O)c1cc(F)cc2cn[nH]c12 [Example 93],6,–,–
"O=C(Nc1ccc2c(c1)OCCN2C1COC1)[C@@H]1CCN1S(=O)(=O)c1cc(C(F)F)cc2cn[nH]c12 [Example 180, (S)-1-((5-(difluoromethyl)-1H-indazol-7-yl)sulfonyl)-N-(4-(oxetan-3-yl)-3,4-dihydro-2H-benzo[b][1,4]oxazin-7-yl)azetidine-2-carboxamide]",61,–,–
CC#CCNC(=O)CN(C)S(=O)(=O)c1cc(C)cc2cc(C#N)[nH]c12 [Example 210],39,–,–
CC#CCN(C)C(=O)CN(C)S(=O)(=O)c1cc(C)cc2cc(C#N)[nH]c12 [Example 226],–,–,0.368
C/C=C/CNC(=O)CN(C)S(=O)(=O)c1cc(C)cc2cc(C#N)[nH]c12 [Example 227],–,–,0.018
